Reference: paper PMC8224775, “Five Tetramic Acid Derivatives Isolated from the Iranian Fungus Colpoma quercinum CCTU A372” (Biomolecules, 2021)
≈ marks a conversion by molar mass, not a printed value. Marks after values point to notes of the source that are not given here.

Columns and labels:
[1] = test system: Rhodotorula glutinis DSM 10134; experiment: Antimicrobial serial dilution assay (MIC); format: cell-based; conditions: serial dilution 67 to 0.5 µg/mL, overnight
Procedure: (§1) Antimicrobial activity was determined by our established protocol, according to Becker et al.. In general, all of the pure compounds were dissolved in MeOH with a concentration of 1 mg/mL. Assessment of the antimicrobial activity was determined using the serial dilution assay method to calculate the minimum inhibitory concentration (MIC). In this method, the compounds were diluted in a range between 67 and 0.5 µg/mL in 96 well-plate and incubated with the test organism overnight. The next day, growth of the test organisms was visually observed, and MIC was determined in the lowest concentration where a clear zone (no growth of test organism) was observed. In our attempt for novel anti-infective compounds, an established standard protocol using various organisms representing a broad spectrum of pathogens of clinical interest, as well as sensitive indicator strains, was used (bacteria: Bacillus subtilis DSM 10, Staphylococcus aureus DSM 346, Acinetobacter baumanii DSM 30008, Chromobacterium violaceum DSM 30191, Escherichia coli DSM 1116 and Pseudomonas aeruginosa PA14; mycobacteria: Mycobacterium smegmatis ATCC 700084 and fungi: Candida albicans DSM 1665, Schizosaccharomyces pombe DSM 70572, Mucor hiemalis DSM 2656, Wickerhamomyces anomala DSM 6766 and Rhodotorula glutinis DSM 10134). Methanol as a solvent to dissolve the pure compounds was used as the negative control. Oxytetracycline, ciprofloxacin, gentamycin, and kanamycin were used as positive controls against bacteria, whereas nystatin was used against fungi. A detailed experimental procedure can be found in the SI.
(§2) Protocol: Antimicrobial Activity Assay
(§3) The assay was conducted as a minimum inhibitory concentration (MIC) assay in 96-well round- bottom microtiter plates using the parameters summarized in Table S1 and as already described in [S1]. Stocks of the test organisms were generated by growing the organisms overnight in 50 mL shaking flasks filled with 25 mL of the growth medium at 140r p m ( media and temperatures see Table S1). If the organisms were well grown the next day, which was checked by the occurrence of an optical density (OD) […] of the suspension (OD600 nm for bacteria, OD548 nm for fungi and M. smegmatis), aliquots of these were stored in 1.5 mL reaction tubes in a freezer at −80 °C for up to 12 months. Upon use, aliquots were unthawed and the OD of the suspension measured and adjusted by diluting with the respective growth medium. OD600 nm was adjusted to 0.01 and OD548 nm to 0.1. Subsequently, 150 μ L of the adj usted suspensions were added to all wells of a 96-well microtiter plate (one test organism per plate). In row A, additional 130 μ L of suspensions plus 20 μ L of the test compounds (1 mg/mL) and the controls (one compound/column) were added. MeOH was used as negative controls, while different positive controls (references) were used for the test organisms (see Table S1). Then, starting from row A, 150 μ L of t he suspension were transferred to the next row, the contents thoroughly mixed, and 150 μ L transferred to the following row. The remaining 150 μ L after row H were discarded. […]
(§4) of the test compounds, ranging from 66.7 μg/mL in row A to 0.52 μ g/mL in row H. The microtiter plates were then incubated overnight on a microplate shaker at 800 rpm at 30 or 37 °C (see Table S1) and were visually evaluated the next day. The MIC is defined as the lowest concentration where no growth of the test organism (clear zone) was observed. A lower MIC thus corresponds to a higher antimicrobial activity of the test compound.
(§5) Table S1: MIC assay experiment parameters test organism strain No growth incubation positive control […]
(§6) Candidaa lbicans DSM1665 MYC3 30 nystatin 1.0mg/ mL
(§7) Schizosaccharomyces DSM70572 MYC3 30 nystatin 1.0mg/ mL
(§8) Mucor hiemalis DSM2656 MYC3 30 nystatin 1.0mg/ mL
(§9) Wickerhamomyces DSM6766 MYC3 30 nystatin 1.0mg/ mL
(§10) Rhodotorula glutinis DSM10134 MYC3 30 nystatin 1.0mg/ mL
(§11) 1 MHB: Müller-Hinton Broth (SN X927.1, CarlRoth GmbH, Karlsruhe, Germany) […]

Mucor hiemalis DSM 2656 = experiment: Antimicrobial serial dilution assay (MIC); format: cell-based; conditions: serial dilution 67 to 0.5 µg/mL, overnight
Procedure: as §1, §2, §3, §4, §5, §6, §7, §8, §9, §10, §11

Pichia anomala DSM 6766 = experiment: Antimicrobial serial dilution assay (MIC); format: cell-based; conditions: serial dilution 67 to 0.5 µg/mL, overnight
Procedure: as §1, §2, §3, §4, §5, §6, §7, §8, §9, §10, §11

[2] = test system: squamous cell carcinoma A-431; experiment: 5-day MTT cytotoxicity assay; format: cell-based, human; conditions: Homo sapiens, A-431, 120 h
Procedure: (§12) Cytotoxicity of compounds 1‒5 was initially determined against two cancer cell lines (mouse fibroblasts L-929 and human endocervical adenocarcinoma KB-3.1) by using a 5-day MTT assay according to an established procedure.
(§13) In 96-well flat-bottom microtiter plates, cell lines with serial dilution of the test compounds (final range: 37 to 0.6 × 10^−3 µg/mL) were incubated for five days. After five days, the cells were dyed using 3-(4,5-dimethyl-2-thiazolyl)-2,5-diphenyl-2H-tetrazolium bromide (MTT), which is only converted to its purple formazan derivative by living cells. The half-maximum inhibitory concentration (IC50 in µM) was calculated via the colorimetric method in a microplate reader using absorption at 595 nm. In addition, when an inhibition with an IC50 < 50 µM was observed, other cell lines were subjected to the test compounds to evaluate their further cytotoxicity: PC-3 (human prostate adenocarcinoma), SK-OV-3 (human ovary adenocarcinoma), MCF-7 (human breast adenocarcinoma), A-431 (human squamous carcinoma), and A549 (human lung carcinoma). A detailed procedure, including the colorimetric method to determine the cell viability, can be found in the SI.
(§14) Protocol: Cytotoxicity Assay
(§15) The assay was co nducted in 9 6-well flat -botto m microtiter plates using the parameters summarised in T able S2 and as described in [S2]. Cell l ines L-929 and KB-3.1 were incubated at 37 °C under 10 % CO2 in Gibco™ DMEM medium (T her mo Fisher Scientific, Waltham, M A, USA) supplemented with 10 % FBS. A microtiter plate was filled wit h 120 μ L o f this suspensio n (50,000/mL) in each well. Seperatel y, a nother microti ter plate wa s filled wit h 100 μL of gro wth medium in each well. Then, 50 μ L of the test compound solutions (1 mg/mL) were given to wells of the first column in two replicates (one compound per row). Cells without additives and MeOH were used as nega tive controls. Starting from the first column, 50 μ L of the solutions were gradually transferred to the next column, the contents thoroughly mixed, and 50 μL transferred to the following column. This created a serial dilution of the test compounds ranging from 333 μ g/mL to 1.9×10-3 μg/ mL. T he re mai ni ng 50 μ L after column twelve were discarded. From this microtiter plate, 60 μ L of the solutions fro m 111 μ g/mL to 1.9×10-3 μg/mL we r e give n to t he firs t p late co ntai ni ng 1 2 0 μ L of the cell suspensions (i.e. the highest co ncentration 333 μ g/ mL wa s no t used). T his resul ted in fi nal compo und concentratio ns rangi ng fro m 37 μ g/mL to 0.6×10-3 μg/ mL. After 5 days o f incubatio n under the aforementioned incubatio n conditions, the half maximu m inhibitory co ncentrations (IC50) were deter mined using a colorimetric tetrazolium d ye MT T assa y [S3]. For this, 20 μ L of a 5 mg/mL solution of 3-(4,5-dimethyl-2 -thiazolyl) -2,5-diphenyl-2H-tetrazolium br omide (MTT) were added to each well and incubated for two hours at 37 °C. T hen, the microtiter plate was ce ntrifuged (3,000 rpm, 5 min) and the supernatant removed by holding the plate upside-down and gentle shaking. Afterwards, the wells were washed using 100 μ L of phosphate buffered saline (PBS). T he plate was a gain ce ntrifuged a nd the supernata nt re mo ved as described before.
(§16) T hen, 1 0 0 μ L of an isopropanol:HCl solution (1L isopropanol+4 mL HCl 37 % w/v) were added to the wells. After incubating for 10 min at ambient temperature, the absorption of the wells at 595 nm was measured with an Infinite® 200 Pro microplate reader (TECAN, Männedorf, Schweiz). The absorption values of the cells without additives were averaged and set to 100 % cell viability. Then, the means of absorption of the two compound replicates were set in relation to the blank media. T hese percentage values were plotted against the concentratio n range (37 μ g/mL to 0.6×10−3 μg/ mL). T he IC50 value was r ead fro m the plot (in μ g/ mL) a nd the uni ts conversed […]
to μM. […]

[3] = test system: ovarian carcinoma SK-OV-3; experiment: 5-day MTT cytotoxicity assay; format: cell-based, human; conditions: Homo sapiens, SK-OV-3, 120 h
Procedure: as §12, §13, §14, §15, §16
to μM. […]

[4] = test system: endocervical adenocarcinoma KB-3.1; experiment: 5-day MTT cytotoxicity assay; format: cell-based, human; conditions: Homo sapiens, KB 3-1, 120 h
Procedure: as §12, §13, §14, §15, §16
to μM. […]

mouse fibroblast L-929 = experiment: 5-day MTT cytotoxicity assay; format: cell-based; conditions: Mus musculus, L929, 120 h
Procedure: as §12, §13, §14, §15, §16
to μM. […]

[5] = test system: human prostate cancer PC-3; experiment: 5-day MTT cytotoxicity assay; format: cell-based; conditions: 120 h
Procedure: as §12, §13, §14, §15, §16
to μM. […]

[6] = test system: human breast adenocarcinoma MCF-7; experiment: 5-day MTT cytotoxicity assay; format: cell-based; conditions: Homo sapiens, MCF7, 120 h
Procedure: as §12, §13, §14, §15, §16
to μM. […]

[7] = test system: human lung carcinoma A-549; experiment: 5-day MTT cytotoxicity assay; format: cell-based; conditions: A549, 120 h
Procedure: as §12, §13, §14, §15, §16
to μM. […]

[8] = test system: Acinetobacter baumanii DSM 30008; experiment: Antimicrobial serial dilution assay (MIC); format: cell-based; conditions: Acinetobacter baumannii, DSM30008, serial dilution 67 to 0.5 µg/mL, overnight, read-out: MIC
Procedure: as §1, §2, §3, §4, §5, §6, §7, §8, §9, §10, §11

Bacillus subtilis DSM 10 = experiment: Antimicrobial serial dilution assay (MIC); format: cell-based; conditions: DSM10, serial dilution 67 to 0.5 µg/mL, overnight, read-out: MIC
Procedure: as §1, §2, §3, §4
Table S1: MIC assay experiment parameters test organism strain No growth incubation positive control
Bacillus subtilis DSM10 MHB1 30 oxytetracyclin 1.0mg/ mL […]
as §6, §7, §8, §9
(§17) Rhodotorula glutinis DSM10134 MYC3 30 nystatin 1.0mg/ mL […]

[9] = test system: Staphylococcus aureus DSM 346; experiment: Antimicrobial serial dilution assay (MIC); format: cell-based; conditions: DSM346, serial dilution 67 to 0.5 µg/mL, overnight, read-out: MIC
Procedure: as §1, §2, §3
as §4, with “A lower MIC thus corresponds to a higher antimicrobial activity of the test compound.” left out

Escherichia coli = experiment: Antimicrobial serial dilution assay (MIC); format: cell-based; conditions: serial dilution 67 to 0.5 µg/mL, overnight, read-out: MIC
Procedure: as §1, §2, §3, §4, §5
Escherichia coli DSM1116 MHB1 37 oxytetracyclin 1.0mg/ mL […]
as §6, §7, §8, §9, §17

In the case of C[C@@H]1[C@H](O)[C@@H](C)/C=C/C=C/CC/C=C/C=C/C=C/C=C/C(O[C@H]2O[C@H](C)[C@@H](O)[C@H](N)[C@@H]2O)CC2O[C@](O)(CC(O)C(O)CCC(O)CC(O)CC(O)CC(=O)O[C@H]1C)CC(O)C2C(=O)O (some centres unmarked) [nystatin, reference compound], the MIC [1] is reported as 1.0 ^b µg/mL, the MIC (Mucor hiemalis DSM 2656) is reported as 4.2 ^b µg/mL and the MIC (Pichia anomala DSM 6766) is reported as 4.2 ^b µg/mL.

In the case of C/C(=C\c1csc(C)n1)[C@@H]1C[C@@H]2O[C@]2(C)CCC[C@H](C)[C@H](O)[C@@H](C)C(=O)C(C)(C)[C@@H](O)CC(=O)O1 [epothilone B, reference compound], the IC50 [2] is reported as 0.083 nM, the IC50 [3] is reported as 0.24 nM and the IC50 [4] is reported as 0.053 nM. It also gave an IC50 (mouse fibroblast L-929) of 0.83 nM, an IC50 [5] of 0.27 nM and an IC50 [6] of 0.071 nM. The IC50 [7] was 0.055 nM.

In the case of O=C(O)c1cn(C2CC2)c2cc(N3CCNCC3)c(F)cc2c1=O [ciprofloxacin, reference compound], the MIC [8] is reported as 0.26 µg/mL (≈ 0.785 µM).

Work on CN(C)[C@@H]1C(O)=C(C(N)=O)C(=O)[C@@]2(O)C(O)=C3C(=O)c4c(O)cccc4[C@@](C)(O)[C@H]3[C@H](O)[C@@H]12 [oxytetracycline, reference compound] yielded an MIC (Bacillus subtilis DSM 10) of 8.3 µg/mL (≈ 18 µM), an MIC [9] of 1.7 µg/mL (≈ 3.69 µM) and an MIC (Escherichia coli) of 1.7 µg/mL (≈ 3.69 µM).
